Test results from patent US8778626B2, “Clickable cross-linker” (California Institute of Technology, priority 2010, dated 2014).

Assays:
HEK 293 cells = experiment: cytotoxicity of CXL-1 on cells during in vivo cross-linking; format: cell-based
Procedure: Tagged Cul1 was induced with 1.0 μg/mL tetracycline for 4 hours in experiments for in vivo cross-linking. Twenty four hours after induction, cells were subject to in vivo cross-linking by treating 0, 0.1, 0.2, 0.5, and 1.0 mM of CXL-1, respectively, and incubated for 1 h at 37° C. After the completion of the cross-linking, cells were lysed for 30 minutes at 4° C. with the lysis buffer (0.050 M HEPES, pH 7.5, 0.0050 M Mg(OAc)2, 0.070 M KOAc, 10% glycerol, and 0.4% IGEPAL CA630). The lysate was centrifuged at 16,600 g at 4° C. for 20 min and the supernatant was used for Western blot analysis.
Cul1 is a ubiquitin ligase that attaches a ubiquitin chain on target substrates for proteasome-catalyzed degradation (Deshaies, R. J. Annu. Rev. Cell Dev. Biol. 1999, 15, 435). Cul1 is a prototype of the cullin ligase family, and constitutes modular ligase complexes with other binding partners. […] Secondly, if cytoplasmic Cul1 protein is cross-linked by CXL-1, the postulated cell permeability and water solubility from the design of CXL-1 can be verified. FIG. 11 depicts the Western blot analysis of cross-linked Cul1 samples acquired from in vivo cross-linking of HEK 293 cells. From the observation of the higher molecular weight band, Cul1 is cross-linked by CXL-1 in a range of approximately 0.5 to 1.0 mM. […] Accordingly, CXL-1 is compatible with the cellular environment for in vivo cross-linking.

Cul1 protein = molecular target: T1, Cul1 protein (Homo sapiens, UniProt Q13616); experiment: in vivo cross-linking of HEK 293 cells followed by Western blot analysis of Cul1; format: cell-based; details: inferred from cross-linking of cytoplasmic Cul1 in HEK 293 cells
T1 construct: expressed in transfected cells
Procedure: (§1) To test the cell permeability and water solubility of CXL-1, in vivo cross-linking of HEK 293 cells, followed by Western blot analysis of the Cul1 protein were performed. The in vivo cross-linking of HEK 293 cells by CXL-1, followed by Western blot analysis was carried out as described previously with minor modifications (Lee et al., Mol. Cell. Proteomics 2010, Electronic preprint. doi:10.1074/mcp.M110.006460.) Briefly, to facilitate the purification of Cul1, a HEK 293-derived stable cell line capable of expressing tagged Cul1 upon tetracycline treatment was constructed using the T-REx™ (Tetracycline-regulated Expression) system (Invitrogen, Carlsbad, Calif.). The tandem tag used here consists of a hexa-histidine sequence and a biotinylation signal sequence (Tagwerker et al., 2006). Biotinylation is catalyzed by endogenous biotin ligases, which are present in all eukaryotic cells (Cronan J. Biol. Chem. 1990, 265, 10327). A specific lysine residue in the biotinylation signal sequence functions as an acceptor site for biotin in vivo (Kulman et al., Protein Expr. Purif. 2007, 52, 320).
Tagged Cul1 was induced with 1.0 μg/mL tetracycline for 4 hours in experiments for in vivo cross-linking. Twenty four hours after induction, cells were subject to in vivo cross-linking by treating 0, 0.1, 0.2, 0.5, and 1.0 mM of CXL-1, respectively, and incubated for 1 h at 37° C. […]

[1] = water solubility of CXL-1 verified by in vivo cross-linking; format: physicochemical; details: PBS; inferred from in vivo cross-linking of Cul1
Procedure: as §1
Cul1 is a ubiquitin ligase that attaches a ubiquitin chain on target substrates for proteasome-catalyzed degradation (Deshaies, R. J. Annu. Rev. Cell Dev. Biol. 1999, 15, 435). Cul1 is a prototype of the cullin ligase family, and constitutes modular ligase complexes with other binding partners. […]

ubiquitin = molecular target: T2, ubiquitin (Homo sapiens, UniProt P0CG47); experiment: circular dichroism spectrometry of CXL-1 cross-linked ubiquitin; details: CD spectra, 0.25 or 1 mM CXL-1, t=0 and t=30 min, 1×PBS pH 7.4 (FIG. 10)
T2 construct: cross-linking of ubiquitin (PDB ID: 1 UBQ)
Procedure: The CXL-1 cross-linked ubiquitin samples were analyzed by an Aviv Model 62A DS Circular Dichroism (CD) Spectrometer (Lakewood, N.J.) at room temperature. The critical instrumental parameters included: acquisition range=200 to 300 nm, step size=1.00 nm, averaging time=5 s, bandwidth=1 nm, and path length=1 mm. One scan was recorded for each spectrum. For CXL-1 cross-linked samples, 1 to 4 μL of 50 mM CXL-1 stock solution in DMSO was added to 196 to 199 μL of 0.1 mg/mL ubiquitin in 1×PBS pH 7.4 to yield a final concentration of 0.25 to 1 mM CXL-1 in 200 CD spectra were collected upon addition of CXL-1 (t=0) and after 30 min of cross-linking reaction (t=0.5 h).
Circular dichroism (CD) spectrometry is a useful analytical technique for quick investigation of secondary structure, folding, and binding properties of peptides and proteins (Greenfield, N. J. Nat. Protocols 2007, 1, 2876). […] The CD spectra of native ubiquitin were previously recorded, yielding the secondary structure analysis of 6% α-helix, 10% β-sheet and 84% random structures, which can be observed as increasingly negative ellipticity over the range of 225 to 240 nm (Jenson et al., Biochim. Biophys. Acta 1980, 624, 378, the entire contents of which are herein incorporated by reference). […]

T1 sequence (Q13616 whole entry): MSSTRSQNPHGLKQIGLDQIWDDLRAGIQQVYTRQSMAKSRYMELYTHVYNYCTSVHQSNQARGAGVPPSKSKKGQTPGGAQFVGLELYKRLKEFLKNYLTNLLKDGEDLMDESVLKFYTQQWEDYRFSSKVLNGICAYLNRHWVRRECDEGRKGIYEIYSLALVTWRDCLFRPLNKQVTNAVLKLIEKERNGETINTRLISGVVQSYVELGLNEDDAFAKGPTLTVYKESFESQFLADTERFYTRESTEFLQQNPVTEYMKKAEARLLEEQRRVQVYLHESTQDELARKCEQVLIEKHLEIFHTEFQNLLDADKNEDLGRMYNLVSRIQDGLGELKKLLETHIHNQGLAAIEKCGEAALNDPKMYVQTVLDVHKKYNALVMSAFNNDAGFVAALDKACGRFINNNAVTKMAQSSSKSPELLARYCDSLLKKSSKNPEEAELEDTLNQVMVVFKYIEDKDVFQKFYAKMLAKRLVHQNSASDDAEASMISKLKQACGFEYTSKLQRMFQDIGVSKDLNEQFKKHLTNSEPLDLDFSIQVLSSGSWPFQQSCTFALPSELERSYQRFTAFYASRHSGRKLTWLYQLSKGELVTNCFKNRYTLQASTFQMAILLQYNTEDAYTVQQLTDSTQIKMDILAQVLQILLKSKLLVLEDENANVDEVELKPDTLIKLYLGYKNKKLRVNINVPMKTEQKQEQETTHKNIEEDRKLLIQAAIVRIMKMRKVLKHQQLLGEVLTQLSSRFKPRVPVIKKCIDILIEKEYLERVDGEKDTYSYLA

- cell permeability (Cul1 protein): cell-permeable
- solubility [1]: soluble in PBS
- contribution of CXL-1 on ubiquitin secondary structure (ubiquitin): minimal or undetectable
Substance: NHS-activated 2,2′-(hex-5-ynylazanediyl)diacetic acid [CXL-1]
- cytotoxic activity on cells (HEK 293 cells; CXL-1 in working concentration ranges): no or minimal cytotoxic activity
- cell toxicity (HEK 293 cells; treatment of CXL-1 up to 1 mM, HEK 293 cells, 1 h at 37° C.): did not induce any significant cell toxicity
